pIC50: −log10 of the molar value.
What was measured:
PI3Kβ (p110β) = PI3Kβ (p110β) (Homo sapiens, UniProt P42338); assay: ADP-Glo kinase inhibition, PI3Kβ; conditions: read-out: IC50 PI3Kβ Biochemical
Protocol: (§1) In Example 7, the inhibitory effects of Sample 6 prepared in Example 6 above on kinases PI3Kα, PI3Kβ, PI3Kγ and PI3Kδ were tested.
(§2) The kinases used in the experiment were respectively purchased from: • PI3Kα (p110α/p85α), purchased from Invitrogen, under Cat. No. PV4788; • PI3Kβ (p110β), purchased from eurofins, under Cat. No. 14-603M; • PI3Kδ (p110δ/p85a), purchased from Invitrogen, under Cat. No. PV6452; and • PI3Kγ (p110γ), purchased from Invitrogen, under Cat. No. PR8641C. • Firstly, a 1× kinase buffer solution was prepared, which comprised: • 50 mM HEPES, pH 7.5 • 3 mM MgCl2 • 1 mM EGTA • 100 mM NaCl • 0.03% CHAPS • 2 mM DTT
(§3) On kinases PI3Kα, PI3Kβ and PI3Kγ, the final detection concentration of the compound was 10 μM. 100× concentration was prepared, i.e., 1000 μM. 90 μL of 100% DMSO was added to the second well in row A on a 96-well plate, 10 μL of a 10 mM compound solution was then added, and 3-fold serial dilution was made to obtain a total of 10 concentrations.
(§4) 50 μL of 100% DMSO was transferred to two empty wells as Max well and Min well, respectively.
(§5) 50 nL of the compound was transferred into a 384-well plate using ECHO550.
(§6) Preparation of 2× kinase solution: the kinase was added to a 1× kinase buffer to prepare a 2× enzyme solution. […]
(§7) Finally, the chemiluminescence values were read from Envision 2104 Multi-label Reader and subjected to curve fitting, and IC50 was calculated.

[1] = Dynamic water desorption analysis (DVS), hygroscopicity; format: physicochemical
Protocol: The instrument model used for DVS analysis was IGA Sorp (Hidentity Isochema). The sample was measured in a gradient mode, the humidity range for the test was from 0% to 90%, and the humidity increment of each gradient was 10%. The time to keep at each humidity gradient was from 30 min to 2 h.
It was determined by NMR and TGA that the sample had essentially no weight loss and no solvent residue before decomposition.
Sample 3 was taken as an example for dynamic water desorption analysis (DVS) characterization. The instrument model used for DVS analysis was IGA Sorp (Hidentity Isochema). The sample was measured in a gradient mode, the humidity range for the test was from 0% to 90%, and the humidity increment of each gradient was 10%. The time to keep at each humidity gradient was from 30 min to 2 h.

PI3Kγ (p110γ) = biological target: T1, PI3Kγ (p110γ) (Homo sapiens, UniProt P48736); assay: ADP-Glo kinase inhibition, PI3Kγ; conditions: read-out: IC50 PI3Kγ Biochemical
T1 construct: purchased Invitrogen PR8641C
T1 sequence (P48736 whole entry): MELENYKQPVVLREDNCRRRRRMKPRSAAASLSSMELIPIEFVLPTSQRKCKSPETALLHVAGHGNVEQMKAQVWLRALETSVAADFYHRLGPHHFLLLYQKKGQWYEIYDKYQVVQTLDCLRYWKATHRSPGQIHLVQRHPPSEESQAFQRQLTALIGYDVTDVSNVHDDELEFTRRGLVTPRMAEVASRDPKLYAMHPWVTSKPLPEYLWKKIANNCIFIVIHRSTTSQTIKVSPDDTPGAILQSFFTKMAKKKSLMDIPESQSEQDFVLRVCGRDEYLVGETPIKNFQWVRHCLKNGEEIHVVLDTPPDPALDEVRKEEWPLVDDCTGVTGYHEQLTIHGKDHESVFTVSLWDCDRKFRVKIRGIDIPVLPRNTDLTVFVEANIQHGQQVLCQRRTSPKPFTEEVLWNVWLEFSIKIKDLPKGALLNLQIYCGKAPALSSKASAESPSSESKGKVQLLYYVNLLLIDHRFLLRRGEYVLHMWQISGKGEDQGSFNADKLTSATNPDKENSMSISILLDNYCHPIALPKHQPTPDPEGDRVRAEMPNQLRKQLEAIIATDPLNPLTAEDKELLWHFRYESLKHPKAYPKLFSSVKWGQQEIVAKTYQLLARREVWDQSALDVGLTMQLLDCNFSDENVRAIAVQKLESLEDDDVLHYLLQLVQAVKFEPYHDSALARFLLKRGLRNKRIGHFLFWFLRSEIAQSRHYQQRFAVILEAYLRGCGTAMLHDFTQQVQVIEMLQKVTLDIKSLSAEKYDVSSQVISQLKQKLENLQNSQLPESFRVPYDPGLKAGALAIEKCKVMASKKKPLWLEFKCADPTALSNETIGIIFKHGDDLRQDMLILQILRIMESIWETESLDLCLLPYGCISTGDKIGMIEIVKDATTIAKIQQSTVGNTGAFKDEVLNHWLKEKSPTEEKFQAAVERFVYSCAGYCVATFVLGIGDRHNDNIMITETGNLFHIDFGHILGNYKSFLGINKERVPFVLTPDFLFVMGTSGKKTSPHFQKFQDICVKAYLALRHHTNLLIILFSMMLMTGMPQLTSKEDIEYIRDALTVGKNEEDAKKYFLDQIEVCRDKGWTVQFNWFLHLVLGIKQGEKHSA
Protocol: as §1, §2, §3, §4, §5, §6, §7

[2] = Crystal form stability under high humidity (XRPD); format: physicochemical; conditions: RT/92.5% RH, 11 days
Description: In addition, the stability of p-toluenesulfonate crystal form I (Sample 8) under grinding and high humidity conditions was investigated.
For example, the p-toluenesulfonate crystal form I sample was placed at RT/92.5% RH for 11 days and then measured by XRPD.

DoHH-2 = assay: Proliferation of lymphoma cell line in vitro, DoHH-2; format: cell-based; conditions: Homo sapiens, read-out: absolute IC50 (AbsIC50), proliferation
[3] = tested on: mouse colorectal cancer CT26. WT cell; assay: Mouse colorectal cancer CT26. WT cell subcutaneous transplantation tumor model; format: in vivo
Description: WT cell subcutaneous transplantation tumor model.

Sequence of PI3Kβ (p110β) (P42338 whole entry): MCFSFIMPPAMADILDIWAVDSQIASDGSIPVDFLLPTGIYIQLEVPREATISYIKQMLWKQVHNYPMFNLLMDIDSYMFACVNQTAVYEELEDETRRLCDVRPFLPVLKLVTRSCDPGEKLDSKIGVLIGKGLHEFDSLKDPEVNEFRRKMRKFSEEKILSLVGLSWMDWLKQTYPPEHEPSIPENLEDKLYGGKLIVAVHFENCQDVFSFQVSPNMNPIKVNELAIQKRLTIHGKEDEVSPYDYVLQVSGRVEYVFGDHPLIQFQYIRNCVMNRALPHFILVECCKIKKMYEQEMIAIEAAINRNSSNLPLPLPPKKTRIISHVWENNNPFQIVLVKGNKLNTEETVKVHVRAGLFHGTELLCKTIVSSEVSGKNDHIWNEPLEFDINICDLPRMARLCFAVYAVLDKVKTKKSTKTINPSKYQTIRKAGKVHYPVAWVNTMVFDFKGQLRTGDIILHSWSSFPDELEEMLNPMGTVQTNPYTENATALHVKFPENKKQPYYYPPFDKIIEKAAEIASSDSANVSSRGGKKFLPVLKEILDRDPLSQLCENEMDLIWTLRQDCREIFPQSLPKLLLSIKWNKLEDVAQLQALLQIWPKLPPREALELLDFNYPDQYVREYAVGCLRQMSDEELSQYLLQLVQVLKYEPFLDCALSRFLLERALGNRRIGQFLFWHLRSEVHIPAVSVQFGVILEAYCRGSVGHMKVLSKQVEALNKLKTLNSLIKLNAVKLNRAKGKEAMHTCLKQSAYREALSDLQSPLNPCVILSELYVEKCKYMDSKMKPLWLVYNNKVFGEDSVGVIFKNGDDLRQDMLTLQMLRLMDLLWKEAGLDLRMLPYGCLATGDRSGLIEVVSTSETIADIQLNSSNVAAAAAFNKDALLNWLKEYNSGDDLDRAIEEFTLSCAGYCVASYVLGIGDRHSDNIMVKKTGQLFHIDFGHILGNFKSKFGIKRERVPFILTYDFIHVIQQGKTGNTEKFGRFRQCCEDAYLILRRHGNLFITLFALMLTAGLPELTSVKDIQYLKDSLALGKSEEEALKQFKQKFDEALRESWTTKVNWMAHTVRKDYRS

C[C@H](Nc1nc(N)nc(N)c1C#N)c1cc2ccc(F)cc2nc1-c1ccccn1 [p-toluenesulfonate of Compound A]
pIC50 (PI3Kβ (p110β)): 7.36
crystal form before and after humidity change (XRPD after DVS) ([1]; 0% to 90% RH): remained unchanged
moisture absorbed (DVS) ([1]; at 90% RH): 0.92%
pIC50 (PI3Kγ (p110γ)): 8.32
crystal form after high humidity (XRPD) [2]: crystal form of the sample did not change
pIC50 (DoHH-2): > 7.00
effect on tumor volume growth [3]: significant inhibitory effect

From patent US20240182407A1, “QUINOLINE COMPOUND SALT OR CRYSTAL FORM, PREPARATION METHOD THEREFOR, AND APPLICATION THEREOF” (Nanjing Zenshine Pharmaceuticals Co., Ltd., priority 2021, published 2024)
